# Source: ChEMBL document CHEMBL5512668, “Macrocyclic Azapeptide Nitriles: Structure-Based Discovery of Potent SARS-CoV-2 Main Protease Inhibitors as Antiviral Drugs” (J Med Chem, 2024)
# Columns and labels:
# Cathepsin S = Cathepsin S (Homo sapiens, UniProt P25774); assay: Inhibition of recombinant human cathepsin S using Z-Phe-Arg-AMC as substrate incubated for 60 mins
# SARS-CoV-2 [1] = assay: microbe, parasite or virus in culture; conditions: Severe acute respiratory syndrome coronavirus 2, WK-521, Vero C1008
# SARS-CoV-2 [2] = assay: microbe, parasite or virus in culture; conditions: Severe acute respiratory syndrome coronavirus 2, JPN/TY/WK-521, VeroE6/TMPRSS2
# SARS-CoV-2 [3] = assay: microbe, parasite or virus in culture; conditions: Severe acute respiratory syndrome coronavirus 2, JPN/TY/WK-521, VeroE6/TMPRSS2, 24 h, read-out: INH
# SARS-CoV-2 [4] = assay: microbe, parasite or virus in culture; conditions: Severe acute respiratory syndrome coronavirus 2, JPN/TY/WK-521, VeroE6/TMPRSS2; remark: listed apart in the source
# in vitro = conditions: male, human, plasma
# [5] = biological target: T1, Replicase polyprotein 1ab (Severe acute respiratory syndrome coronavirus 2, UniProt P0DTD1)
# [6] = Stability of compound in DMEM assessed as time required for 50% compound degradation at 100 uM incubated for 24 hrs by HPLC method
# SARS-CoV-2 [7] = assay: microbe, parasite or virus in culture; conditions: Severe acute respiratory syndrome coronavirus 2, JPN/TY/WK-521, VeroE6/TMPRSS2, 24 h, read-out: INH; remark: listed apart in the source
# [8] = biological target: T1, Replicase polyprotein 1ab; remark: listed apart in the source
# Procathepsin L = Procathepsin L (Homo sapiens, UniProt P07711); assay: Inhibition of human cathepsin L using Z-Phe-Arg-pNA as substrate incubated for 60 mins
# Chain of Procathepsin L (P07711 whole entry): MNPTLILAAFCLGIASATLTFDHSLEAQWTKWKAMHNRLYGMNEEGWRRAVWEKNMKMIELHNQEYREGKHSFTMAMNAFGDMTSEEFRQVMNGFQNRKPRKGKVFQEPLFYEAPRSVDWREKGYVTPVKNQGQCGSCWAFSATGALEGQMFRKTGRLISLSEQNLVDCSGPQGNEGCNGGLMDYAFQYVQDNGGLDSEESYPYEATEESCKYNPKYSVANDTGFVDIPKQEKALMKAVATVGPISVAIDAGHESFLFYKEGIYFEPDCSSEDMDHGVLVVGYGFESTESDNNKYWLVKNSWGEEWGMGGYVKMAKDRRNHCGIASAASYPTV
# Chain of Cathepsin S (P25774 whole entry): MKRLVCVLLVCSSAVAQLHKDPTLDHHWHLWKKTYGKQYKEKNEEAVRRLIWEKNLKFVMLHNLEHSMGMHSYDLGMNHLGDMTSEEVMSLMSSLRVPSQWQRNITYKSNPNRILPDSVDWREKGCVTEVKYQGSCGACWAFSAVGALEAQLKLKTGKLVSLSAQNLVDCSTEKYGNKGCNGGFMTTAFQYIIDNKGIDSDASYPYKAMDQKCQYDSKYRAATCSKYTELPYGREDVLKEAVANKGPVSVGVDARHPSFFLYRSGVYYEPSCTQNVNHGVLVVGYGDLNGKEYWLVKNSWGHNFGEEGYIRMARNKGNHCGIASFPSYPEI
Structure (SMILES),Ki (Cathepsin S) [nM],half-life at 100 µM (in vitro) [h],IC50 [5] [nM],Ki [8] [nM],also measured
CN1C(=O)[C@H](CCc2ccccc2)NC(=O)COCCOCCOc2ccc(F)cc2CN1C#N,662,–,–,–,–
CC(C)(C)[C@H](NC(=O)C(F)(F)F)C(=O)N1C[C@H]2[C@@H]([C@H]1C(=O)N[C@H](C#N)C[C@@H]1CCNC1=O)C2(C)C,–,–,–,–,IC50 (SARS-CoV-2 [1]): 940 nM; IC50 (SARS-CoV-2 [2]): 160 nM; inhibition at 3.33 µM (SARS-CoV-2 [3]): 93%; EC50 (SARS-CoV-2 [4]): 860 nM
CN1C(=O)[C@H](Cc2ccccc2)N(C(=O)COc2ccc(Cl)cc2Cl)CCCOc2c(Cl)cccc2CN1C#N,–,1.92,38,26.8,"half-life at 24 h, 100 µM [6]: 1.76 h; inhibition at […] (SARS-CoV-2 [7]): 58%; EC50 (SARS-CoV-2 [4]): 2140 nM"
CN1C(=O)[C@H](CCc2ccccc2)NC(=O)COCCOc2ccc(F)cc2CN1C#N,179,–,1470,–,–
CN(C(=O)[C@H](Cc1ccccc1)NC(=O)[C@@H](NC(=O)C1CCCC1)C(C)(C)C)N(C#N)Cc1ccc(Cl)cc1,–,–,32,23,Ki (Procathepsin L): 344 nM
CN1C(=O)[C@H](Cc2ccccc2)N(C(=O)CNC(=O)c2cccs2)CCCOc2c(Cl)cccc2CN1C#N,470,3,3,2.29,"half-life at 24 h, 100 µM [6]: 7.65 h; inhibition at 3.33 µM (SARS-CoV-2 [3]): 63%; EC50 (SARS-CoV-2 [4]): 2550 nM"
CN1C(=O)[C@H](Cc2ccccc2)N(C(=O)COc2ccc(Cl)cc2Cl)CCCOc2ccc(Cl)c(F)c2CN1C#N,1820,–,57,–,–
CCN(CC)CCOC(=O)c1ccc(N)cc1.Cl [PROCAINE HYDROCHLORIDE],–,0.103,–,–,–
COc1ccc([C@@H]2Sc3ccccc3N(CCN(C)C)C(=O)[C@@H]2OC(C)=O)cc1.Cl [DILTIAZEM HYDROCHLORIDE],–,13.1,–,–,–
CN1C(=O)[C@H](Cc2ccccc2)NC(=O)COCCOCCOc2ccc(F)cc2CN1C#N,765,–,2610,–,–
CN(C(=O)[C@H](Cc1ccccc1)NC(=O)[C@@H](NC(=O)c1cccs1)C(C)(C)C)N(C#N)Cc1ccc(Cl)cc1,–,–,19,13.3,Ki (Procathepsin L): 179 nM
CN1C(=O)[C@H](Cc2ccccc2)N(C(=O)[C@@H](NC(=O)c2cccs2)C(C)(C)C)CCCOc2ccc(Cl)c(F)c2CN1C#N,3020,–,–,–,–
